Assay results: publication PMC7613998, “Development of selective inhibitors of phosphatidylinositol 3-kinase C2α” (Nature Chemical Biology, 2022)
pIC50: −log10 of the molar value.

Biological target: T1, PI3KC2α (Homo sapiens, UniProt O00443)
T1 construct: gene PIK3C2A; human PI3KC2α^ΔN (amino acids 376–1686)
Assay: ADP-Glo lipid kinase assay with PI as substrate
Type: biochemical

T1 sequence (O00443 376-1686): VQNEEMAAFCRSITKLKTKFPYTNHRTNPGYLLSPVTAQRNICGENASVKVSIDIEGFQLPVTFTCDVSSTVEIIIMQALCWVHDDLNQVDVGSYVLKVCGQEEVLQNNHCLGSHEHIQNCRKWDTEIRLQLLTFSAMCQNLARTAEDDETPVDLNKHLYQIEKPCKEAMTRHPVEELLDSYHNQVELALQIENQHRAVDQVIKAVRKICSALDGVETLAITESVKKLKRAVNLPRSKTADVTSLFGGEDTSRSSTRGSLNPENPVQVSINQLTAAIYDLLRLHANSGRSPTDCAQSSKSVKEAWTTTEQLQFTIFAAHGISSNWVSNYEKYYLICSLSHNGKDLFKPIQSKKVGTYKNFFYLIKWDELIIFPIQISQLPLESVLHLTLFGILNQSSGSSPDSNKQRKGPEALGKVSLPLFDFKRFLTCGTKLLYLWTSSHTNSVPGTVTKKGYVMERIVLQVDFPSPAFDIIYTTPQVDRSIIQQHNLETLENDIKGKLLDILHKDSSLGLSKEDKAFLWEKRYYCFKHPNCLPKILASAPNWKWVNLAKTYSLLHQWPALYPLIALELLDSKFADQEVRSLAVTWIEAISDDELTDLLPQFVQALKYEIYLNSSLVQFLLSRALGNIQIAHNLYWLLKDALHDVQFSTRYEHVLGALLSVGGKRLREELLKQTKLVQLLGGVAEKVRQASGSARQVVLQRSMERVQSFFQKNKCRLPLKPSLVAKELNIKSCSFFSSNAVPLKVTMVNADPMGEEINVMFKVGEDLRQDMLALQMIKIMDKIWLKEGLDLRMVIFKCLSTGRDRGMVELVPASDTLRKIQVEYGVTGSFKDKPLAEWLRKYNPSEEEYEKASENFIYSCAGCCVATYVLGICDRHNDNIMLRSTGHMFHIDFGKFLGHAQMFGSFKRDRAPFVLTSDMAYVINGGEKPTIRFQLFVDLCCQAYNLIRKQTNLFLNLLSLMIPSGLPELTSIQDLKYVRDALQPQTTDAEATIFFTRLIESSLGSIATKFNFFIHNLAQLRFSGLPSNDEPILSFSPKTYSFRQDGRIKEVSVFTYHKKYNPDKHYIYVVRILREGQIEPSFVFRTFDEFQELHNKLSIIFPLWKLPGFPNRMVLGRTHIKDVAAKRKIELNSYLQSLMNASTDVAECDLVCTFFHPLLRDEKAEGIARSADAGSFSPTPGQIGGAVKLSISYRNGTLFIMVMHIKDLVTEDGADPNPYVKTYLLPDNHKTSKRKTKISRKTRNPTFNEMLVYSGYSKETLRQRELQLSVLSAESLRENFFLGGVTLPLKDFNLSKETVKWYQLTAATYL

pIC50: 5.59
Structure (SMILES): CC(C)CCn1c(SCC(=O)Nc2ccccc2C(F)(F)F)nc2nccnc2c1=O [compound 4]
